Target: human PDE9 (PDE9A2) (Homo sapiens (Human), UniProt O76083)
Experiment: PDE9 IMAP fluorescence polarization (FP) inhibition assay
Format: biochemical
Conditions: FAM-cGMP substrate 50 nM, room temperature
Description: The activity of the compounds in accordance with the present invention as PDE9 inhibitors may be readily determined without undue experimentation using a fluorescence polarization (FP) methodology that is well known in the art (Huang, W., et al., J. Biomol Screen, 2002, 7: 215).
In a typical experiment the PDE9 inhibitory activity of the compounds of the present invention was determined in accordance with the following experimental method. Rhesus PDE9A2 was amplified from rhesus whole brain cDNA (Biochain Institute) essentially as described in Hutson, et al. Neuropharmacology (2011) 61(4):665-676. HEK 293 or CHO cells over-expressing rhesus or rat PDE9A2 (created by DiscoverX from mRNA Genbank accession # NM_138543) respectively were lysed in 20 mM HEPES, 1 mM EDTA buffer with protease inhibitors (Roche, Indianapolis, Ind.). After brief homogenization, cells were pelleted via centrifugation at 75,000×g for 20 min at 4° C. The pellets were re-suspended, centrifuged and re-pelleted again in the same manner. The membrane fraction was collected in 20 mM HEPES, 1 mM MgCl2 with protease inhibitors. Human PDE9 (PDE9A2, GenBank Accession No. NM_001001567), full length with N-terminal GST tag, was purchased from BPS Bioscience. The fluorescence polarization assay for cyclic nucleotide phosphodiesterases was performed using an IMAP® FP kit supplied by Molecular Devices, Sunnyvale, Calif. (product # R8139). IMAP® technology has been applied previously to phosphodiesterase assays (Huang, W., et al., J. Biomol Screen, 2002, 7: 215). Assays were performed at room temperature in 384-well microtiter plates with an incubation volume of 20.2 μL. Solutions of test compounds were prepared in DMSO and serially diluted with DMSO to yield 8 μL of each of 10 solutions differing by 3-fold in concentration, at 32 serial dilutions per plate. 100% inhibition is determined using a known PDE9 inhibitor, such as 1-(2-chlorophenyl)-6-[(2R)-3,3,3-trifluoro-2-methylpropyl]-1,5-dihydro-4H-pyrazolo[3,4-d]pyrimidine-4-one (BAY 73-6691) (Wunder et al, Mol. Pharmacol., 2005, 68(6): 1775-81), (6-[(3S,4S)-4-methyl-1-(pyrimidin-2-ylmethyl)pyrrolidin-3-yl]-1-(tetrahydro-2H-pyran-4-yl)-1,5-dihydro-4H-pyrazolo[3,4-d]pyrimidin-4-one (PF-04447943) (Wager et al., ACS Chemical Neuroscience, 2010, 1:435-449). 0% of inhibition is determined by using DMSO (1% final concentrations). A Labcyte Echo 555 (Labcyte, Sunnyvale, Calif.) is used to dispense 200 nL from each well of the titration plate to the 384 well assay plate. Rhesus membrane preps were diluted to 4 ng/ml, rat membrane preps diluted to 13 ng/ml, and human PDE9A2 diluted to 1 ng/ml. FAM-labeled cGMP substrate (Molecular Devices, Sunnyvale, Calif.) was at a concentration of 100 nM (Km of PDE9 for cGMP is 70-170 nM) in the assay buffer (10 mM Tris HCl, pH 7.2, 10 mM MgCl2, 0.05% NaN3 0.01% Tween-20, and 1 mM DTT). PDE9 enzyme mix and compounds were mixed and incubated at room temperature for 30 min. Following which, FAMcGMP substrate was added, shaken and incubated for an additional 60 min at room temperature. The final concentrations of rhesus and rat membrane preparations were 2 ng/ml and 6.5 ng/ml, respectively, while the human PDE9 was used at a final concentration of 0.5 ng/ml. The final concentration of FAM-cGMP was 50 nM. After the incubation period, the enzymatic reaction was stopped by addition of binding solution (IMAP-FP, Molecular Devices, comprised of 80% Solution A, 20% Solution B and a 1:600 dilution of binding reagent) to each well. The plates were shaken then incubated at room temperature for 1 h prior to determining the fluorescence polarization (mP) using a Perkin Elmer EnVision™ plate reader (Waltham, Mass.).
Fluorescence polarization (mP) was calculated from the parallel (S) and perpendicular (P) fluorescence of each sample well and the analogous values for the median control well, containing only substrate (So and Po), using the following equation: Polarization(mP)=1000*(S/So−P/Po)/(S/So+P/Po). […]

human PDE9 (PDE9A2), sequence (O76083 other isoform, or with tags, fused parts or gaps): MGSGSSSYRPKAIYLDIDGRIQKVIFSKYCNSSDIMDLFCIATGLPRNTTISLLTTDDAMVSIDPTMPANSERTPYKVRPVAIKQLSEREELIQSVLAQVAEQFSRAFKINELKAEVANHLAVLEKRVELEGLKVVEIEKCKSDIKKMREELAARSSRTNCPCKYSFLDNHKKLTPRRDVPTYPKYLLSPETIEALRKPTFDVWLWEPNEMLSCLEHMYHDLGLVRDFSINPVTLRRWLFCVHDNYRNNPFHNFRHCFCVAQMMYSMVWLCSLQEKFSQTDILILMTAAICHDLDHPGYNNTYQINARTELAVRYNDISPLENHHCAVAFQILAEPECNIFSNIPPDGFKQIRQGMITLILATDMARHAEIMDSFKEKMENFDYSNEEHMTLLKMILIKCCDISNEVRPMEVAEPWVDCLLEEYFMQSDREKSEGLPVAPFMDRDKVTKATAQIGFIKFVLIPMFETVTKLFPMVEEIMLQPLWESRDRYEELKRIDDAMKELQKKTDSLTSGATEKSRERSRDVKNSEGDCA

| SMILES | Ki |
| --- | --- |
| N#Cc1c(N2CC[C@@H](n3cccn3)C2)c2ccccc2[nH]c1=O [Example 1-7, (R)-4-(3-[1H-pyrazol-1-yl]pyrrolidin-1-yl)-2-oxo-1,2-dihydroquinoline-3-carbonitrile] | 7.5 nM |
| N#Cc1c(N2CCCCCC2)c2ccccc2[nH]c1=O [Example 1-8, 4-(azepan-1-yl)-2-oxo-1,2-dihydroquinoline-3-carbonitrile] | 18 nM |
| N#Cc1c(N2CCC2)c2ccccc2[nH]c1=O [Example 1-9, 4-(azetidin-1-yl)-2-oxo-1,2-dihydroquinoline-3-carbonitrile] | 5550 nM |
| N#Cc1c(NCCC2COC2)c2ccccc2[nH]c1=O [Example 1-12, 4-((2-(oxetan-3-yl)ethyl)amino)-2-oxo-1,2-dihydroquinoline-3-carbonitrile] | 71.1 nM |
| CC1(C)CCN(c2c(C#N)c(=O)[nH]c3ccccc23)CC1 [Example 1-11, 4-(4,4-dimethylpiperidin-1-yl)-2-oxo-1,2-dihydroquinoline-3-carbonitrile] | 26.3 nM |
| CCN(CC)c1c(C#N)c(=O)[nH]c2ccccc12 [Example 1-10, 4-(diethylamino)-2-oxo-1,2-dihydroquinoline-3-carbonitrile] | 88.9 nM |

— patent publication US10376504B2, “Substituted quinolinones as PDE9 inhibitors” (Merck Sharp & Dohme Corp., priority 2015, dated 2019)
